Source: patent US20070009986A1, “Compositions for modulating immune cell activity and methods for detection thereof” (priority 2003, published 2007)

Test system: CD8+CD45RO+ T-cell migration towards and away from HIV-1gp120
Experiment: Inhibitor profile of T-cell movement towards and away from recombinant X4 gp120 in transmigration assays
Type: cell-based, human
Settings: for inhibition of migration away from gp120: T-cells including HIV-specific CTL
Method: Transmigration assays: Transmigration assays were performed in a transwell system with a polycarbonate membrane of 6.5-mm diameter with 5 μm pore size (Corning, Corning, N.Y.) as described (Kim et al., 1998, Blood 91:4434-4443; Poznansky et al., 2000, Nat Med 6:543-548). Purified T-cell subpopulations (5×10^4 cells) were added to the upper chamber of each well in a total volume of 150 μl Iscove's modified media. SDF-1α (PeproTech, Rocky Hill, N.J.) or recombinant HIV-1 gp120 (Immunodiagnostics, Woburn, Mass., AIDS Reagent Repository, NIH or RW) was used at concentrations ranging from 2 ng/ml to […] in the lower, upper, or both lower and upper chambers of the transwell to generate a standard “checkerboard” analysis matrix of positive, negative and absent gradients. Recombinant variable loop deletion mutants of HIV-1IIIB gp120 including V1, V1.V2, and V1.V2.V3, were also used in these assays. Transwells were incubated for 3 hours at 37° C., after which cells were collected from the lower chamber and counted.
Specific components of the Gi-protein coupled receptor signaling pathway for SDF-1 can be blocked by a number of different chemical inhibitor (Poznansky et al., 2000, Nat Med 6:543-548; Poznansky et al., 2002, Clin. Invest. 109:1101-1110; Sotsios et al., 1999, J. Immunol. 163:5954-5963; Vlahakis et al. 2001, J. Clin. Invest. 107:207-215). The inhibitor profile for movement of resting T-cell subpopulations towards and away from recombinant X4 gp120 in transmigration assays had been established.

pertussis toxin
inhibition of T-cell migration towards and away from HIV-1gp120 (CD8+CD45RO+ T-cells incubated with inhibitor prior to transmigration assay, FIG. 2): significantly inhibited
inhibition of migration away from gp120: inhibited

Nc1ncnc2c1nc(Br)n2[C@@H]1O[C@@H]2COP(=O)(O)O[C@H]2[C@H]1O [8-Br-cAMP]
inhibition of migration away from gp120: inhibited
